# According to patent publication US20240238295A1, “METHOD FOR MODULATING NEUROPATHIES” (priority 2021, published 2024):
# Values joined by “and” are separate entries in the source; they are usually repeats but may differ in a detail not shown here. Equal entries are not always repeated.
# Key:
# Type in all cases: in vivo, rhesus monkey (Macaca mulatta)
# [1] = test system: retinal ischemia/reperfusion (I/R) rhesus monkey model; assay: OCT mean thickness of 9-room retinal EDTRS area, retinal I/R model; details: change vs before modeling; further: test concentration or dose not given here
# [2] = test system: retinal ischemia/reperfusion (I/R) rhesus monkey model; assay: OCT Global mean thickness of retinal nerve fiber layer (RNFL), retinal I/R model; details: change vs before modeling; further: test concentration or dose not given here
# [3] = test system: retinal ganglion cells (RGC); assay: Brn3a immunohistochemistry retinal ganglion cell count, retinal ischemia/reperfusion (I/R) model; details: for average loss of RGC cells: I/R eyes vs contralateral OS eye, Day 63 after retinal I/R, oral 63 days; for protection on retinal ganglion cells: retinal I/R, 63 days of treatment; on average loss of RGC cells: test concentration or dose not given here
# [4] = test system: rhesus monkeys with spontaneous diabetic peripheral neuropathy; assay: Nerve electromyogram: sensory nerve conduction velocity (SCV) of abnormal nerves, spontaneous DPN model; details: for Variation value, sensory nerve conduction velocity, Mean ± SD / Administration D58, sensory nerve conduction velocity, Mean ± SD / Baseline value, sensory nerve conduction velocity, Mean ± SD: group mean over all abnormal nerves; for Variation value, sensory nerve conduction velocity, Mean ± SD / Variation value, sensory nerve conduction velocity: D58 minus baseline; for Administration D58, sensory nerve conduction velocity, Mean ± SD / Administration D58, sensory nerve conduction velocity: Day 58 of administration; for Baseline value, sensory nerve conduction velocity, Mean ± SD / Baseline value, sensory nerve conduction velocity: before administration; for Variation value, sensory nerve conduction velocity / Administration D58, sensory nerve conduction velocity / Baseline value, sensory nerve conduction velocity: individual animal; on Administration D58, sensory nerve conduction velocity, Mean ± SD: test concentration or dose not given here; on Administration D58, sensory nerve conduction velocity: test concentration or dose not given here; on Variation value, sensory nerve conduction velocity, Mean ± SD: test concentration or dose not given here; on Variation value, sensory nerve conduction velocity: test concentration or dose not given here
# [5] = test system: sural nerve of rhesus monkeys with spontaneous diabetic peripheral neuropathy; assay: Nerve electromyogram: sural sensory nerve conduction velocity, spontaneous DPN model; details: for Change value, sural sensory nerve conduction velocity, Mean ± SD / D58 of administration, sural sensory nerve conduction velocity, Mean ± SD / Baseline value, sural sensory nerve conduction velocity, Mean ± SD: group mean over abnormal sural nerves; for Change value, sural sensory nerve conduction velocity, Mean ± SD / Change value, sural sensory nerve conduction velocity: D58 minus baseline; for D58 of administration, sural sensory nerve conduction velocity, Mean ± SD / D58 of administration, sural sensory nerve conduction velocity: Day 58 of administration; for Baseline value, sural sensory nerve conduction velocity, Mean ± SD: before administration; for Change value, sural sensory nerve conduction velocity / D58 of administration, sural sensory nerve conduction velocity: individual animal; on Change value, sural sensory nerve conduction velocity, Mean ± SD: test concentration or dose not given here; on Change value, sural sensory nerve conduction velocity: test concentration or dose not given here; on D58 of administration, sural sensory nerve conduction velocity, Mean ± SD: test concentration or dose not given here; on D58 of administration, sural sensory nerve conduction velocity: test concentration or dose not given here
# [6] = OS (non-ischemic contralateral eye), Day 7
# [7] = OS (non-ischemic contralateral eye), Day 21
# [8] = OS (non-ischemic contralateral eye), Day 35
# [9] = OS (non-ischemic contralateral eye), Day 63
# [10] = spontaneous DPN, 58 days, P>0.05 vs placebo group
compound,measurement,setting,value
"COc1cc2nc(N3CCN(C(=O)C4COc5ccccc5O4)CC3)nc(N)c2cc1OC (racemic) [DOX, (RS)-2-[4-(2,3-Dihydro-1,4-benzodioxine-2-carbonyl)piperazin-1-yl]-6,7-dimethoxyquinazolin-4-amine]",Δ mean thickness of the 9-room retinal EDTRS area,"[1]; OD (IR injury), Day 7",−26 ± 0 μm
same,Δ mean thickness of the 9-room retinal EDTRS area,"[1]; OD (IR injury), Day 21",−48 ± 7 μm
same,Δ mean thickness of the 9-room retinal EDTRS area,"[1]; OD (IR injury), Day 35",−54 ± 10 μm
same,Δ mean thickness of the 9-room retinal EDTRS area,"[1]; OD (IR injury), Day 63",−58 ± 9 μm
same,Δ mean thickness of the 9-room retinal EDTRS area,[1]; [6],−5 ± 4 μm
same,Δ mean thickness of the 9-room retinal EDTRS area,[1]; [7],−3 ± 4 μm
same,Δ mean thickness of the 9-room retinal EDTRS area,[1]; [8],−3 ± 3 μm
same,Δ mean thickness of the 9-room retinal EDTRS area,[1]; [9],−3 ± 5 μm
same,Δ Global mean thickness of retinal nerve fiber layer (RNFL),"[2]; OD (I/R injury), Day 35",−14 ± 4 μm
same,Δ Global mean thickness of retinal nerve fiber layer (RNFL),"[2]; OD (I/R injury), Day 63",−21 ± 7 μm
same,Δ Global mean thickness of retinal nerve fiber layer (RNFL),[2]; [8],1 ± 2 μm
same,Δ Global mean thickness of retinal nerve fiber layer (RNFL),[2]; [9],1 ± 1 μm
same,average loss of RGC cells,[3],63.9±14.1%
same,protection on retinal ganglion cells,[3],weak protection
"CC(/C=C1\SC(=S)N(CC(=O)O)C1=O)=C\c1ccccc1 [Epalrestat, epalrestat]","Variation value, sensory nerve conduction velocity, Mean ± SD",[4],4.2 ± 4.0 m/s
same,"Administration D58, sensory nerve conduction velocity, Mean ± SD",[4],43.6 ± 7.3 m/s
same,"Baseline value, sensory nerve conduction velocity, Mean ± SD",[4],38.8 ± 4.7 m/s
same,"Variation value, sensory nerve conduction velocity",[4]; left median nerve (abnormal),1.5 m/s and 8.6 m/s
same,"Administration D58, sensory nerve conduction velocity",[4]; left median nerve (abnormal),40 m/s and 51.2 m/s
same,"Baseline value, sensory nerve conduction velocity",[4]; left median nerve (abnormal),38.5 m/s and 42.6 m/s
same,"Variation value, sensory nerve conduction velocity",[4]; left sural nerve (abnormal),−1.1 m/s and 5.6 m/s and 6.1 m/s
same,"Baseline value, sensory nerve conduction velocity",[4]; left sural nerve (abnormal),40.4 m/s and 39.6 m/s and 35.3 m/s
same,"Variation value, sensory nerve conduction velocity",[4]; left ulnar nerve (abnormal),8.3 m/s
same,"Administration D58, sensory nerve conduction velocity",[4]; left ulnar nerve (abnormal),50.7 m/s
same,"Baseline value, sensory nerve conduction velocity",[4]; left ulnar nerve (abnormal),42.4 m/s
same,"Variation value, sensory nerve conduction velocity",[4]; right median nerve (abnormal),−0.7 m/s and 4.8 m/s
same,"Administration D58, sensory nerve conduction velocity",[4]; right median nerve (abnormal),25.1 m/s and 48.2 m/s
same,"Baseline value, sensory nerve conduction velocity",[4]; right median nerve (abnormal),25.8 m/s and 43.4 m/s
same,"Variation value, sensory nerve conduction velocity",[4]; right sural nerve (abnormal),0.4 m/s and 2.8 m/s and −0.6 m/s and 9.3 m/s
same,"Baseline value, sensory nerve conduction velocity",[4]; right sural nerve (abnormal),40.9 m/s and 36.8 m/s and 44.4 m/s and 34.6 m/s
same,"Variation value, sensory nerve conduction velocity",[4]; right ulnar nerve (abnormal),9.2 m/s
same,"Administration D58, sensory nerve conduction velocity",[4]; right ulnar nerve (abnormal),48.4 m/s
same,"Baseline value, sensory nerve conduction velocity",[4]; right ulnar nerve (abnormal),39.2 m/s
same,mean increase in SCV of nerves with abnormal conduction velocities vs baseline,"[4]; spontaneous DPN, administered for 58 days",4.2±4.0 m/s
same,"Change value, sural sensory nerve conduction velocity, Mean ± SD",[5],3.2 ± 3.9 m/s
same,"D58 of administration, sural sensory nerve conduction velocity, Mean ± SD",[5],42.1 ± 2.1 m/s
same,"Baseline value, sural sensory nerve conduction velocity, Mean ± SD",[5],38.9 ± 3.2 m/s
same,"Change value, sural sensory nerve conduction velocity",[5]; left sural nerve (abnormal),6.1 m/s and −1.1 m/s and 5.6 m/s
same,"D58 of administration, sural sensory nerve conduction velocity",[5]; left sural nerve (abnormal),41.4 m/s and 39.3 m/s and 45.2 m/s
same,"Change value, sural sensory nerve conduction velocity",[5]; right sural nerve (abnormal),9.3 m/s and 0.4 m/s and 2.8 m/s and −0.6 m/s
same,"D58 of administration, sural sensory nerve conduction velocity",[5]; right sural nerve (abnormal),43.9 m/s and 41.3 m/s and 39.6 m/s and 43.8 m/s
same,average increase in sensory nerve conduction velocity (SCV) of abnormal sural nerves vs baseline,"[5]; spontaneous DPN, 58 days of administration",3.2±3.9 m/s
same,nerves determined to be effectively improved in conduction velocity (of abnormal sural nerves),"[5]; spontaneous DPN, 58 days, effective = return to normal or increase by 2-5 m/s or more",4/7
"CCCN[C@H]1CCc2nc(N)sc2C1 [PMP, (S)—N6-propyl-4,5,6,7-tetrahydro-1,3-benzothiazole-2,6-diamine]","Variation value, sensory nerve conduction velocity, Mean ± SD",[4],0.4 ± 1.3 m/s
same,"Administration D58, sensory nerve conduction velocity, Mean ± SD",[4],39.0 ± 5.1 m/s
same,"Baseline value, sensory nerve conduction velocity, Mean ± SD",[4],38.6 ± 4.9 m/s
same,"Variation value, sensory nerve conduction velocity",[4]; left median nerve (abnormal),−1.9 m/s and 0.8 m/s
same,"Administration D58, sensory nerve conduction velocity",[4]; left median nerve (abnormal),42.1 m/s and 40.0 m/s
same,"Baseline value, sensory nerve conduction velocity",[4]; left median nerve (abnormal),44.0 m/s and 39.2 m/s
same,"Variation value, sensory nerve conduction velocity",[4]; left sural nerve (abnormal),−0.3 m/s and 1.9 m/s
same,"Baseline value, sensory nerve conduction velocity",[4]; left sural nerve (abnormal),40.5 m/s and 38.5 m/s
same,"Variation value, sensory nerve conduction velocity",[4]; right median nerve (abnormal),−0.6 m/s
same,"Administration D58, sensory nerve conduction velocity",[4]; right median nerve (abnormal),25.6 m/s
same,"Baseline value, sensory nerve conduction velocity",[4]; right median nerve (abnormal),26.2 m/s
same,"Variation value, sensory nerve conduction velocity",[4]; right sural nerve (abnormal),−0.4 m/s and 2.1 m/s and 1.4 m/s
same,"Baseline value, sensory nerve conduction velocity",[4]; right sural nerve (abnormal),40.0 m/s and 39.0 m/s and 41.2 m/s
same,improvement in abnormal sensory nerve conduction velocity compared with the placebo group,[4]; [10],no significant improvement
same,"Change value, sural sensory nerve conduction velocity, Mean ± SD",[5],0.9 ± 1.1 m/s
same,"D58 of administration, sural sensory nerve conduction velocity, Mean ± SD",[5],40.8 ± 1.0 m/s
same,"Baseline value, sural sensory nerve conduction velocity, Mean ± SD",[5],39.8 ± 1.0 m/s
same,"Change value, sural sensory nerve conduction velocity",[5]; left sural nerve (abnormal),−0.3 m/s and 1.9 m/s
same,"D58 of administration, sural sensory nerve conduction velocity",[5]; left sural nerve (abnormal),40.2 m/s and 40.4 m/s
same,"Change value, sural sensory nerve conduction velocity",[5]; right sural nerve (abnormal),−0.4 m/s and 2.1 m/s and 1.4 m/s
same,"D58 of administration, sural sensory nerve conduction velocity",[5]; right sural nerve (abnormal),39.6 m/s and 41.1 m/s and 42.6 m/s
same,improvement in abnormal sural sensory nerve conduction velocity compared with the placebo group,[5]; [10],no significant improvement
same,Δ mean thickness of the 9-room retinal EDTRS area,"[1]; OD (IR injury), Day 7",−50 ± 14 μm
same,Δ mean thickness of the 9-room retinal EDTRS area,"[1]; OD (IR injury), Day 21",−79 ± 15 μm
same,Δ mean thickness of the 9-room retinal EDTRS area,"[1]; OD (IR injury), Day 35",−85 ± 14 μm
same,Δ mean thickness of the 9-room retinal EDTRS area,"[1]; OD (IR injury), Day 63",−88 ± 18 μm
same,Δ mean thickness of the 9-room retinal EDTRS area,[1]; [6],−3 ± 5 μm
same,Δ mean thickness of the 9-room retinal EDTRS area,[1]; [7],−6 ± 3 μm
same,Δ mean thickness of the 9-room retinal EDTRS area,[1]; [8],−2 ± 4 μm
same,Δ mean thickness of the 9-room retinal EDTRS area,[1]; [9],3 ± 3 μm
same,Δ Global mean thickness of retinal nerve fiber layer (RNFL),"[2]; OD (I/R injury), Day 35",−41 ± 8 μm
same,Δ Global mean thickness of retinal nerve fiber layer (RNFL),"[2]; OD (I/R injury), Day 63",−46 ± 3 μm
same,Δ Global mean thickness of retinal nerve fiber layer (RNFL),[2]; [8],−2 ± 1 μm
same,Δ Global mean thickness of retinal nerve fiber layer (RNFL),[2]; [9],2 ± 1 μm
same,average loss of RGC cells,[3],60.0%
same,protection on retinal ganglion cells,[3],weak protection
